# Test results: the NIST ThermoML archive (doi:10.1016/j.fluid.2014.11.020)
# Numbers after ± are expanded uncertainties.
# Assay: activity coefficient (dimensionless); of the first substance listed, at infinite dilution; xn = mol fraction of the nth substance listed
# Conditions: Liquid, Chromatography, x1 = 0
SMILES,activity coefficient (323.15 K),activity coefficient (333.15 K),activity coefficient (343.15 K)
c1ccccc1 [benzene] + CCCOC[n+]1ccc(N(C)C)cc1.O=S(=O)([N-]S(=O)(=O)C(F)(F)F)C(F)(F)F,0.74 ± 0.05,0.78 ± 0.05,0.78 ± 0.05
c1ccccc1 [benzene] + CCCOC[n+]1ccn(C)c1.F[B-](F)(F)F,3.51 ± 0.24,3.45 ± 0.23,3.46 ± 0.24
c1ccccc1 [benzene] + CCCOC[n+]1ccn(C)c1.N#C[N-]C#N,2.25 ± 0.15,2.27 ± 0.15,2.29 ± 0.16
c1ccccc1 [benzene] + CCCOC[n+]1ccn(C)c1.O=S(=O)([N-]S(=O)(=O)C(F)(F)F)C(F)(F)F,1.2 ± 0.08,1.17 ± 0.07,1.17 ± 0.07
c1ccccc1 [benzene] + CCCOC[n+]1ccn(Cc2ccccc2)c1.F[B-](F)(F)F,2.01 ± 0.14,2 ± 0.14,1.99 ± 0.14
c1ccccc1 [benzene] + CCCOC[n+]1ccn(Cc2ccccc2)c1.N#C[N-]C#N,1.51 ± 0.1,1.5 ± 0.1,1.5 ± 0.1
c1ccccc1 [benzene] + CCCOC[n+]1ccn(Cc2ccccc2)c1.O=S(=O)([N-]S(=O)(=O)C(F)(F)F)C(F)(F)F,0.81 ± 0.05,0.71 ± 0.05,0.71 ± 0.05
c1ccccc1 [benzene] + CN(C)c1cc[n+](COCCCOC[n+]2ccc(N(C)C)cc2)cc1.O=S(=O)([N-]S(=O)(=O)C(F)(F)F)C(F)(F)F.O=S(=O)([N-]S(=O)(=O)C(F)(F)F)C(F)(F)F,0.66 ± 0.05,0.67 ± 0.05,0.68 ± 0.05
c1ccccc1 [benzene] + Cn1cc[n+](COCCCOC[n+]2ccn(C)c2)c1.N#C[N-]C#N.N#C[N-]C#N,3.03 ± 0.21,3.05 ± 0.21,3.08 ± 0.21
c1ccccc1 [benzene] + Cn1cc[n+](COCCCOC[n+]2ccn(C)c2)c1.O=S(=O)([N-]S(=O)(=O)C(F)(F)F)C(F)(F)F.O=S(=O)([N-]S(=O)(=O)C(F)(F)F)C(F)(F)F,0.94 ± 0.06,0.94 ± 0.06,0.9 ± 0.06
c1ccccc1 [benzene] + N#C[N-]C#N.N#C[N-]C#N.c1ccc(Cn2cc[n+](COCCCOC[n+]3ccn(Cc4ccccc4)c3)c2)cc1,3.09 ± 0.21,2.95 ± 0.2,2.92 ± 0.2
CCCCO [butan-1-ol] + CCCCCCCCn1cc[n+](COCCC)c1C.O=S(=O)([N-]S(=O)(=O)C(F)(F)F)C(F)(F)F,5.47 ± 0.37,4.33 ± 0.3,4.28 ± 0.29
CCCCO [butan-1-ol] + CCCCCCCCn1cc[n+](COCCCOC[n+]2ccn(CCCCCCCC)c2C)c1C.N#C[N-]C#N.N#C[N-]C#N,7.49 ± 0.51,5.96 ± 0.41,4.81 ± 0.33
CCCCO [butan-1-ol] + CCCCCCCCn1cc[n+](COCCCOC[n+]2ccn(CCCCCCCC)c2C)c1C.O=S(=O)([N-]S(=O)(=O)C(F)(F)F)C(F)(F)F.O=S(=O)([N-]S(=O)(=O)C(F)(F)F)C(F)(F)F,0.84 ± 0.05,0.74 ± 0.05,0.69 ± 0.05
CCCCO [butan-1-ol] + CCCOC[n+]1ccc(N(C)C)cc1.O=S(=O)([N-]S(=O)(=O)C(F)(F)F)C(F)(F)F,2.25 ± 0.15,2.04 ± 0.14,1.85 ± 0.12
CCCCO [butan-1-ol] + CCCOC[n+]1ccn(C)c1.F[B-](F)(F)F,4.61 ± 0.31,4.17 ± 0.28,3.76 ± 0.26
CCCCO [butan-1-ol] + CCCOC[n+]1ccn(C)c1.N#C[N-]C#N,1.37 ± 0.09,1.32 ± 0.09,1.27 ± 0.08
CCCCO [butan-1-ol] + CCCOC[n+]1ccn(C)c1.O=S(=O)([N-]S(=O)(=O)C(F)(F)F)C(F)(F)F,2.37 ± 0.16,2.09 ± 0.14,1.89 ± 0.13
CCCCO [butan-1-ol] + CCCOC[n+]1ccn(Cc2ccccc2)c1.F[B-](F)(F)F,3 ± 0.2,2.59 ± 0.18,2.39 ± 0.16
CCCCO [butan-1-ol] + CCCOC[n+]1ccn(Cc2ccccc2)c1.N#C[N-]C#N,0.93 ± 0.06,0.88 ± 0.06,0.82 ± 0.05
CCCCO [butan-1-ol] + CN(C)c1cc[n+](COCCCOC[n+]2ccc(N(C)C)cc2)cc1.O=S(=O)([N-]S(=O)(=O)C(F)(F)F)C(F)(F)F.O=S(=O)([N-]S(=O)(=O)C(F)(F)F)C(F)(F)F,1.95 ± 0.13,1.64 ± 0.11,1.58 ± 0.1
CCCCO [butan-1-ol] + Cn1cc[n+](COCCCOC[n+]2ccn(C)c2)c1.N#C[N-]C#N.N#C[N-]C#N,2.21 ± 0.15,1.9 ± 0.13,1.79 ± 0.12
CCCCO [butan-1-ol] + Cn1cc[n+](COCCCOC[n+]2ccn(C)c2)c1.O=S(=O)([N-]S(=O)(=O)C(F)(F)F)C(F)(F)F.O=S(=O)([N-]S(=O)(=O)C(F)(F)F)C(F)(F)F,2.02 ± 0.14,1.85 ± 0.12,1.64 ± 0.11

SMILES,activity coefficient (323.15 K),activity coefficient (333.15 K),activity coefficient (343.15 K)
CCCCO [butan-1-ol] + N#C[N-]C#N.N#C[N-]C#N.c1ccc(Cn2cc[n+](COCCCOC[n+]3ccn(Cc4ccccc4)c3)c2)cc1,1.8 ± 0.12,1.68 ± 0.11,1.61 ± 0.11
CCC(C)=O [butanone] + CCCCCCCCn1cc[n+](COCCC)c1C.N#C[N-]C#N,0.7 ± 0.05,0.64 ± 0.04,0.55 ± 0.04
CCC(C)=O [butanone] + CCCCCCCCn1cc[n+](COCCC)c1C.O=S(=O)([N-]S(=O)(=O)C(F)(F)F)C(F)(F)F,0.36 ± 0.03,0.33 ± 0.03,0.3 ± 0.03
CCC(C)=O [butanone] + CCCCCCCCn1cc[n+](COCCCOC[n+]2ccn(CCCCCCCC)c2C)c1C.N#C[N-]C#N.N#C[N-]C#N,0.56 ± 0.04,0.5 ± 0.04,0.46 ± 0.04
CCC(C)=O [butanone] + CCCCCCCCn1cc[n+](COCCCOC[n+]2ccn(CCCCCCCC)c2C)c1C.O=S(=O)([N-]S(=O)(=O)C(F)(F)F)C(F)(F)F.O=S(=O)([N-]S(=O)(=O)C(F)(F)F)C(F)(F)F,0.21 ± 0.03,0.19 ± 0.03,0.18 ± 0.03
CCC(C)=O [butanone] + CCCOC[n+]1ccc(N(C)C)cc1.O=S(=O)([N-]S(=O)(=O)C(F)(F)F)C(F)(F)F,0.51 ± 0.04,0.49 ± 0.04,0.45 ± 0.04
CCC(C)=O [butanone] + CCCOC[n+]1ccn(C)c1.F[B-](F)(F)F,1.73 ± 0.12,1.6 ± 0.11,1.49 ± 0.1
CCC(C)=O [butanone] + CCCOC[n+]1ccn(C)c1.N#C[N-]C#N,1.27 ± 0.08,1.19 ± 0.08,1.12 ± 0.07
CCC(C)=O [butanone] + CCCOC[n+]1ccn(C)c1.O=S(=O)([N-]S(=O)(=O)C(F)(F)F)C(F)(F)F,0.47 ± 0.04,0.43 ± 0.04,0.4 ± 0.03
CCC(C)=O [butanone] + CCCOC[n+]1ccn(Cc2ccccc2)c1.F[B-](F)(F)F,1.06 ± 0.07,0.96 ± 0.06,0.89 ± 0.06
CCC(C)=O [butanone] + CCCOC[n+]1ccn(Cc2ccccc2)c1.N#C[N-]C#N,0.9 ± 0.06,0.87 ± 0.06,0.81 ± 0.05
CCC(C)=O [butanone] + CCCOC[n+]1ccn(Cc2ccccc2)c1.O=S(=O)([N-]S(=O)(=O)C(F)(F)F)C(F)(F)F,0.32 ± 0.03,0.26 ± 0.03,0.22 ± 0.03
CCC(C)=O [butanone] + CN(C)c1cc[n+](COCCCOC[n+]2ccc(N(C)C)cc2)cc1.O=S(=O)([N-]S(=O)(=O)C(F)(F)F)C(F)(F)F.O=S(=O)([N-]S(=O)(=O)C(F)(F)F)C(F)(F)F,0.44 ± 0.04,0.41 ± 0.03,0.38 ± 0.03
CCC(C)=O [butanone] + Cn1cc[n+](COCCCOC[n+]2ccn(C)c2)c1.N#C[N-]C#N.N#C[N-]C#N,1.7 ± 0.11,1.56 ± 0.1,1.44 ± 0.09
CCC(C)=O [butanone] + Cn1cc[n+](COCCCOC[n+]2ccn(C)c2)c1.O=S(=O)([N-]S(=O)(=O)C(F)(F)F)C(F)(F)F.O=S(=O)([N-]S(=O)(=O)C(F)(F)F)C(F)(F)F,0.36 ± 0.03,0.34 ± 0.03,0.32 ± 0.03
CCC(C)=O [butanone] + N#C[N-]C#N.N#C[N-]C#N.c1ccc(Cn2cc[n+](COCCCOC[n+]3ccn(Cc4ccccc4)c3)c2)cc1,1.78 ± 0.12,1.55 ± 0.1,1.41 ± 0.09
C1CCCCCC1 [cycloheptane] + CCCCCCCCn1cc[n+](COCCC)c1C.N#C[N-]C#N,15.7 ± 1.1,–,–
C1CCCCCC1 [cycloheptane] + CCCCCCCCn1cc[n+](COCCC)c1C.O=S(=O)([N-]S(=O)(=O)C(F)(F)F)C(F)(F)F,6.43 ± 0.44,8.72 ± 0.6,11.5 ± 0.78
C1CCCCCC1 [cycloheptane] + CCCCCCCCn1cc[n+](COCCCOC[n+]2ccn(CCCCCCCC)c2C)c1C.N#C[N-]C#N.N#C[N-]C#N,10.1 ± 0.69,13.5 ± 0.92,18.3 ± 1.2
C1CCCCCC1 [cycloheptane] + CCCCCCCCn1cc[n+](COCCCOC[n+]2ccn(CCCCCCCC)c2C)c1C.O=S(=O)([N-]S(=O)(=O)C(F)(F)F)C(F)(F)F.O=S(=O)([N-]S(=O)(=O)C(F)(F)F)C(F)(F)F,5.84 ± 0.4,7.77 ± 0.53,10.2 ± 0.7
C1CCCCCC1 [cycloheptane] + CCCOC[n+]1ccc(N(C)C)cc1.O=S(=O)([N-]S(=O)(=O)C(F)(F)F)C(F)(F)F,18.6 ± 1.3,24.6 ± 1.7,31.7 ± 2.2
C1CCCCCC1 [cycloheptane] + CCCOC[n+]1ccn(C)c1.F[B-](F)(F)F,153 ± 11,240 ± 16,245 ± 17
